Measured values reported in publication PMC10932281, “A Combination of β-Aescin and Newly Synthesized Alkylamidobetaines as Modern Components Eradicating the Biofilms of Multidrug-Resistant Clinical Strains of Candida glabrata” (International Journal of Molecular Sciences, 2024).
≈ marks a conversion by molar mass, not a printed value. Like-named read-outs stand apart in the source and are kept apart here.

What was measured:
[1] = system: biofilms of C. glabrata DSM 1226 and two clinical isolates; set-up: method as in PMID 37508306; settings: combination with β-AE; biofilms of three strains; ref [12]; cited from earlier work
C. glabrata ATCC 90030 [2] = assay: MIC90/MFC, EUCAST broth microdilution; assay type: cell-based, Candida glabrata; settings: Nakaseomyces glabratus, ATCC90030, ATCC 90030; for MFC: read-out: MFC; for MIC90: read-out: MIC90
C. glabrata 2586 [3] = assay: FICI checkerboard, β-aescin with antifungal drugs; assay type: cell-based, Candida glabrata; settings: combination with β-aescin
[4] = system: C. glabrata 2853 clinical strain; assay: MIC90/MFC, EUCAST broth microdilution; assay type: cell-based, Candida glabrata; settings: Nakaseomyces glabratus; for MFC: read-out: MFC; for MIC90: read-out: MIC90
[5] = system: C. glabrata strains (ATCC 90030, 2586, 2853); assay: Interaction of AABs with antifungal agents, statements for all tested strains together; assay type: cell-based, Candida glabrata; settings: all of the tested C. glabrata strains; AABs 3 µM
C. glabrata 2853 [6] = assay: Interaction of AABs (3 µM) with antifungal agents, modified checkerboard; assay type: cell-based, Candida glabrata; settings: for Multiplicity factor (MF) with C9: C9 3 µM; for MIC90 of antimycotic combined with C9: C9 at constant 3 µM; for MIC90 of antimycotic combined with C9 / MIC90 of antimycotic combined with C11 / MIC90 of antimycotic combined with C13 / MIC90 of antimycotic combined with C15: dilutions in µg/mL; for Multiplicity factor (MF) with C11: C11 3 µM; for MIC90 of antimycotic combined with C11: C11 at constant 3 µM; for Multiplicity factor (MF) with C13: C13 3 µM; for MIC90 of antimycotic combined with C13: C13 at constant 3 µM; for Multiplicity factor (MF) with C15: C15 3 µM; for MIC90 of antimycotic combined with C15: C15 at constant 3 µM
C. glabrata 2853 [7] = assay: FICI checkerboard, β-aescin with antifungal drugs; assay type: cell-based, Candida glabrata; settings: for FICI: combination with β-aescin
C. glabrata ATCC 90030 [8] = assay: Interaction of AABs (3 µM) with antifungal agents, modified checkerboard; assay type: cell-based, Candida glabrata; settings: for Multiplicity factor (MF) with C9: C9 3 µM, |MF| = MIC90 alone/MIC90 with AAB; for MIC90 of antimycotic combined with C9: C9 at constant 3 µM; for MIC90 of antimycotic combined with C9 / MIC90 of antimycotic combined with C11 / MIC90 of antimycotic combined with C13 / MIC90 of antimycotic combined with C15: dilutions in µg/mL; for Multiplicity factor (MF) with C11: C11 3 µM; for MIC90 of antimycotic combined with C11: C11 at constant 3 µM; for Multiplicity factor (MF) with C13: C13 3 µM; for MIC90 of antimycotic combined with C13: C13 at constant 3 µM; for Multiplicity factor (MF) with C15: C15 3 µM; for MIC90 of antimycotic combined with C15: C15 at constant 3 µM
C. glabrata 2586 [9] = assay: as above; assay type: cell-based, Candida glabrata; settings: for Multiplicity factor (MF) with C9: C9 3 µM; for MIC90 of antimycotic combined with C9: C9 at constant 3 µM; for MIC90 of antimycotic combined with C9 / MIC90 of antimycotic combined with C11 / MIC90 of antimycotic combined with C13 / MIC90 of antimycotic combined with C15: dilutions in µg/mL; for Multiplicity factor (MF) with C11: C11 3 µM; for MIC90 of antimycotic combined with C11: C11 at constant 3 µM; for MIC90 of antimycotic combined with C13: C13 at constant 3 µM; for Multiplicity factor (MF) with C15: C15 3 µM; for MIC90 of antimycotic combined with C15: C15 at constant 3 µM
C. glabrata ATCC 90030 [10] = assay: FICI checkerboard, β-aescin with antifungal drugs; assay type: cell-based, Candida glabrata; settings: combination with β-aescin
[11] = system: C. glabrata 2586 clinical strain; assay: MIC90/MFC, EUCAST broth microdilution; assay type: cell-based, Candida glabrata; settings: Nakaseomyces glabratus; for MFC: read-out: MFC; for MIC90: read-out: MIC90
[12] = system: C. glabrata ATCC 90030 and 24 clinical isolates; set-up: method as in PMID 26092104; settings: ref [8], cited from earlier work
C. albicans = system: C. albicans; set-up: method as in doi:10.1016/j.carbpol.2003.10.001; settings: C. albicans among organisms tested; ref [35]; cited from earlier work
[13] = set-up: method as in doi:10.1007/BF02673395; settings: ref [48]; cited from earlier work

Molecule	FICI [1]	MFC (C. glabrata ATCC 90030 [2]) [µg/mL]	MIC90 (C. glabrata ATCC 90030 [2]) [µg/mL]	FICI (C. glabrata 2586 [3])	MFC [4] [µg/mL]	MIC90 [4] [µg/mL]	Multiplicity factor (MF) with C9 (C. glabrata 2853 [6])	MIC90 of antimycotic combined with C9 (C. glabrata 2853 [6])	Multiplicity factor (MF) with C11 (C. glabrata 2853 [6])	MIC90 of antimycotic combined with C11 (C. glabrata 2853 [6])	Multiplicity factor (MF) with C13 (C. glabrata 2853 [6])	MIC90 of antimycotic combined with C13 (C. glabrata 2853 [6])	Multiplicity factor (MF) with C15 (C. glabrata 2853 [6])	MIC90 of antimycotic combined with C15 (C. glabrata 2853 [6])	FICI (C. glabrata 2853 [7])	Multiplicity factor (MF) with C9 (C. glabrata ATCC 90030 [8])	MIC90 of antimycotic combined with C9 (C. glabrata ATCC 90030 [8])	Multiplicity factor (MF) with C11 (C. glabrata ATCC 90030 [8])	MIC90 of antimycotic combined with C11 (C. glabrata ATCC 90030 [8])	Multiplicity factor (MF) with C13 (C. glabrata ATCC 90030 [8])	other results
CCC(C)n1ncn(-c2ccc(N3CCN(c4ccc(OCC5COC(Cn6cncn6)(c6ccc(Cl)cc6Cl)O5)cc4)CC3)cc2)c1=O (centres unmarked) [Itraconazole]	≤ 0.5	4100 (≈ 5.8 mM)	4100 (≈ 5.8 mM)	1.004	4100 (≈ 5.8 mM)	4100 (≈ 5.8 mM)	1	4096	1	4096	1	4096	1	4096	1.004	1	4096	1	4096	1	MF with AABs [5]: 1; MIC90 of antimycotic combined with C13 (C. glabrata ATCC 90030 [8]): 4096; Multiplicity factor (MF) with C15 (C. glabrata ATCC 90030 [8]): 1; MIC90 of antimycotic combined with C15 (C. glabrata ATCC 90030 [8]): 4096; Multiplicity factor (MF) with C9 (C. glabrata 2586 [9]): 1; MIC90 of antimycotic combined with C9 (C. glabrata 2586 [9]): 4096; Multiplicity factor (MF) with C11 (C. glabrata 2586 [9]): 1; MIC90 of antimycotic combined with C11 (C. glabrata 2586 [9]): 4096; Multiplicity factor (MF) with C13 (C. glabrata 2586 [9]; C13 3 µM): 1; MIC90 of antimycotic combined with C13 (C. glabrata 2586 [9]): 4096; Multiplicity factor (MF) with C15 (C. glabrata 2586 [9]): 1; MIC90 of antimycotic combined with C15 (C. glabrata 2586 [9]): 4096; FICI (C. glabrata ATCC 90030 [10]): 1.004; MFC [11]: 4100 µg/mL (≈ 5.8 mM); MIC90 [11]: 4100 µg/mL (≈ 5.8 mM)
CC(=O)N1CCN(c2ccc(OCC3COC(Cn4ccnc4)(c4ccc(Cl)cc4Cl)O3)cc2)CC1 (centres unmarked) [Ketoconazole]	≤ 0.5	1020 (≈ 1.93 mM)	256 (≈ 0.482 mM)	1.25	1020 (≈ 1.93 mM)	4 (≈ 0.00753 mM)	1	4	1	4	2 (2)	2 (2)	4	1	0.75	16 (16)	16 (16)	16 (16)	16 (16)	16 (16)	Multiplicity factor (MF) with C13 (C. glabrata 2853 [6]; listed as ketoconazole): 2; Type of interaction with β-AE (by FICI) (C. glabrata 2853 [7]): additive; Multiplicity factor (MF) with C9 (C. glabrata ATCC 90030 [8]; listed as ketoconazole): 16; Multiplicity factor (MF) with C11 (C. glabrata ATCC 90030 [8]; listed as ketoconazole): 16; Multiplicity factor (MF) with C13 (C. glabrata ATCC 90030 [8]; listed as ketoconazole): 16; MIC90 of antimycotic combined with C13 (C. glabrata ATCC 90030 [8]): 16 (16); Multiplicity factor (MF) with C15 (C. glabrata ATCC 90030 [8]): 64; MIC90 of antimycotic combined with C15 (C. glabrata ATCC 90030 [8]): 4; Multiplicity factor (MF) with C9 (C. glabrata 2586 [9]): 8; MIC90 of antimycotic combined with C9 (C. glabrata 2586 [9]): 64; Multiplicity factor (MF) with C11 (C. glabrata 2586 [9]): 16; MIC90 of antimycotic combined with C11 (C. glabrata 2586 [9]): 32; MIC90 of antimycotic combined with C13 (C. glabrata 2586 [9]): 16; Multiplicity factor (MF) with C15 (C. glabrata 2586 [9]): 64; MIC90 of antimycotic combined with C15 (C. glabrata 2586 [9]): 8; FICI (C. glabrata ATCC 90030 [10]): 2; MFC [11]: 1020 µg/mL (≈ 1.93 mM); MIC90 [11]: 512 µg/mL (≈ 0.963 mM)
C[C@@H]1[C@H](O)[C@@H](C)/C=C/C=C/CC/C=C/C=C/C=C/C=C/C(O[C@H]2O[C@H](C)[C@@H](O)[C@H](N)[C@@H]2O)CC2O[C@](O)(CC(O)C(O)CCC(O)CC(O)CC(O)CC(=O)O[C@H]1C)CC(O)C2C(=O)O (some centres unmarked) [nystatin]	–	–	–	–	–	–	–	–	–	–	–	–	–	–	–	–	–	–	–	–	Fold reduction of MIC ([12]; subinhibitory concentrations of β-AE crystalline): 2–16 fold; Fold reduction of MIC ([12]; subinhibitory concentrations of β-AE sodium): 2–4 fold
C12–C18 alkyl amido propyl dimethylamine betaine [AAPDB]	–	–	–	–	–	–	–	–	–	–	–	–	–	–	–	–	–	–	–	–	Antimicrobial activity (C. albicans): active
N-hexadecylamidepropylbetaine	–	–	–	–	–	–	–	–	–	–	–	–	–	–	–	–	–	–	–	–	Krafft point [13]: 16 °C
